Several values for one entry are separate records, joined by “and”; a condition that tells them apart may be missing. Equal entries are not always repeated. Inconclusive results and toxic doses are left out. The calls were made as follows: active = survival T/C of 150% or more; inactive = T/C below 125% in these data.
System: CD2F1 mice, L1210 leukemia ip, survival T/C
Assay: NCI In Vivo Anticancer Drug Screen. Data for tumor model L1210 Leukemia (intraperitoneal) in CD2F1 (CDF1) mice
Conditions: higher = longer survival
How it was run: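 Ratio T/C, where T is the treated-group value and C the vehicle-dosed control value, from mice implanted with a transplantable tumor.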

[1] = endpoint: mean survival time, dose: 100.0 mg/kg/injection, schedule: Q04DX003 (ip), vehicle: saline with Tween-80
[2] = endpoint: mean survival time, dose: 100.0 mg/kg/injection, schedule: Q01DX009 (ip), vehicle: saline with Tween-80

Measured: T/C

Cc1c(N)nc([C@H](CC(N)=O)NC[C@H](N)C(N)=O)nc1C(=O)N[C@H](C(=O)N[C@H](C)[C@@H](O)[C@H](C)C(=O)N[C@H](C(=O)NCCc1nc(-c2nc(C(=O)NCCC[S+](C)C)cs2)cs1)[C@@H](C)O)C(OC1OC(CO)C(O)C(O)C1OC1OC(CO)C(O)C(OC(N)=O)C1O)c1cnc[nH]1 (stereo partly drawn)
inactive: endpoint: mean survival time, dose: 2.0 mg/kg/injection, schedule: Q01DX009 (ip), vehicle: saline 103 % of control and 106 % of control | endpoint: mean survival time, dose: 2.0 mg/kg/injection, schedule: Q01DX009 (ip), vehicle: water 106 % of control | endpoint: mean survival time, dose: 4.0 mg/kg/injection, schedule: Q01DX009 (ip), vehicle: water 110 % of control | endpoint: mean survival time, dose: 8.0 mg/kg/injection, schedule: Q01DX009 (ip), vehicle: water 110 % of control | endpoint: mean survival time, dose: 12.0 mg/kg/injection, schedule: Q01DX009 (ip), vehicle: saline 117 % of control | endpoint: mean survival time, dose: 16.0 mg/kg/injection, schedule: Q01DX009 (ip), vehicle: water 108 % of control | endpoint: mean survival time, dose: 32.0 mg/kg/injection, schedule: Q01DX009 (ip), vehicle: saline 115 % of control and 104 % of control | endpoint: mean survival time, dose: 32.0 mg/kg/injection, schedule: Q01DX009 (ip), vehicle: water 103 % of control | endpoint: mean survival time, dose: 64.0 mg/kg/injection, schedule: Q01DX009 (ip), vehicle: saline 104 % of control | endpoint: median survival time, dose: 0.5 mg/kg/injection, schedule: Q01DX009 (ip), vehicle: saline 88 % of control | endpoint: median survival time, dose: 0.5 mg/kg/injection, schedule: Q03HX024 (ip), vehicle: saline 105 % of control | endpoint: median survival time, dose: 1.0 mg/kg/injection, schedule: Q01DX009 (ip), vehicle: saline 100 % of control and 108 % of control | endpoint: median survival time, dose: 1.0 mg/kg/injection, schedule: Q03HX016 (ip), vehicle: saline 104 % of control | endpoint: median survival time, dose: 1.0 mg/kg/injection, schedule: Q03HX024 (ip), vehicle: saline 105 % of control | endpoint: median survival time, dose: 2.0 mg/kg/injection, schedule: Q03HX008 (ip), vehicle: saline 109 % of control | endpoint: median survival time, dose: 2.0 mg/kg/injection, schedule: Q03HX016 (ip), vehicle: saline 104 % of control | endpoint: median survival time, dose: 2.0 mg/kg/injection, schedule: Q03HX024 (ip), vehicle: saline 104 % of control | endpoint: median survival time, dose: 4.0 mg/kg/injection, schedule: Q03HX008 (ip), vehicle: saline 104 % of control | endpoint: median survival time, dose: 4.0 mg/kg/injection, schedule: Q03HX016 (ip), vehicle: saline 97 % of control | endpoint: median survival time, dose: 4.0 mg/kg/injection, schedule: Q03HX024 (ip), vehicle: saline 104 % of control | endpoint: median survival time, dose: 8.0 mg/kg/injection, schedule: Q03HX008 (ip), vehicle: saline 107 % of control | endpoint: median survival time, dose: 8.0 mg/kg/injection, schedule: Q03HX016 (ip), vehicle: saline 104 % of control | endpoint: median survival time, dose: 8.0 mg/kg/injection, schedule: Q04DX003 (ip), vehicle: saline 107 % of control | endpoint: median survival time, dose: 8.0 mg/kg/injection, schedule: Q08DX002 (ip), vehicle: saline 105 % of control | endpoint: median survival time, dose: 16.0 mg/kg/injection, schedule: Q01DX001 (ip), vehicle: saline 103 % of control | endpoint: median survival time, dose: 16.0 mg/kg/injection, schedule: Q03HX008 (ip), vehicle: saline 103 % of control | endpoint: median survival time, dose: 16.0 mg/kg/injection, schedule: Q03HX016 (ip), vehicle: saline 101 % of control | endpoint: median survival time, dose: 16.0 mg/kg/injection, schedule: Q04DX003 (ip), vehicle: saline 109 % of control | endpoint: median survival time, dose: 16.0 mg/kg/injection, schedule: Q08DX002 (ip), vehicle: saline 105 % of control | endpoint: median survival time, dose: 32.0 mg/kg/injection, schedule: Q01DX001 (ip), vehicle: saline 98 % of control | endpoint: median survival time, dose: 32.0 mg/kg/injection, schedule: Q04DX003 (ip), vehicle: saline 101 % of control | endpoint: median survival time, dose: 32.0 mg/kg/injection, schedule: Q08DX002 (ip), vehicle: saline 102 % of control | endpoint: median survival time, dose: 64.0 mg/kg/injection, schedule: Q01DX001 (ip), vehicle: saline 98 % of control | endpoint: median survival time, dose: 64.0 mg/kg/injection, schedule: Q04DX003 (ip), vehicle: saline 104 % of control | endpoint: median survival time, dose: 64.0 mg/kg/injection, schedule: Q08DX002 (ip), vehicle: saline 107 % of control | endpoint: median survival time, dose: 128.0 mg/kg/injection, schedule: Q01DX001 (ip), vehicle: saline 105 % of control | endpoint: median survival time, dose: 128.0 mg/kg/injection, schedule: Q04DX003 (ip), vehicle: saline 115 % of control | endpoint: median survival time, dose: 128.0 mg/kg/injection, schedule: Q08DX002 (ip), vehicle: saline 97 % of control | endpoint: median survival time, dose: 256.0 mg/kg/injection, schedule: Q01DX001 (ip), vehicle: saline 107 % of control

CC(CCC(=O)c1ccccc1)c1ccc2ccccc2c1 (stereo not drawn)
inactive: endpoint: mean survival time, dose: 100.0 mg/kg/injection, schedule: Q01DX009 (ip), vehicle: Klucel (hydroxypropylcellulose) (HPC) 92 % of control | endpoint: mean survival time, dose: 100.0 mg/kg/injection, schedule: Q04DX003 (ip), vehicle: Klucel (hydroxypropylcellulose) (HPC) 106 % of control | endpoint: mean survival time, dose: 200.0 mg/kg/injection, schedule: Q01DX009 (ip), vehicle: Klucel (hydroxypropylcellulose) (HPC) 100 % of control | endpoint: mean survival time, dose: 200.0 mg/kg/injection, schedule: Q04DX003 (ip), vehicle: Klucel (hydroxypropylcellulose) (HPC) 104 % of control | endpoint: mean survival time, dose: 400.0 mg/kg/injection, schedule: Q01DX009 (ip), vehicle: Klucel (hydroxypropylcellulose) (HPC) 96 % of control | endpoint: mean survival time, dose: 400.0 mg/kg/injection, schedule: Q04DX003 (ip), vehicle: Klucel (hydroxypropylcellulose) (HPC) 97 % of control

Cc1ccc(N=Cc2cc(Cl)ccc2O)cc1.Cc1ccc(N=Cc2cc(Cl)ccc2O)cc1.[Co]
inactive: endpoint: mean survival time, dose: 25.0 mg/kg/injection, schedule: Q04DX003 (ip), vehicle: saline 95 % of control and 104 % of control | endpoint: mean survival time, dose: 50.0 mg/kg/injection, schedule: Q04DX003 (ip), vehicle: saline 98 % of control and 108 % of control | endpoint: mean survival time, dose: 100.0 mg/kg/injection, schedule: Q04DX003 (ip), vehicle: saline 124 % of control and 89 % of control

CC(=O)Nc1ccc(SC(=O)N(C)C)cc1
inactive: [1] 92 % of control

CC12C(=O)OC(=O)C1(C)C1OC2C(Br)C1Br (stereo not drawn)
inactive: endpoint: mean survival time, dose: 25.0 mg/kg/injection, schedule: Q04DX003 (ip), vehicle: saline with Tween-80 96 % of control | endpoint: mean survival time, dose: 50.0 mg/kg/injection, schedule: Q04DX003 (ip), vehicle: saline with Tween-80 96 % of control | [1] 93 % of control and 101 % of control

CC1CCC[N-]C1.CC1CCC[N-]C1.CC1CCC[N-]C1.CC1CCC[N-]C1.[Cl][Rh][Cl] (stereo not drawn)
inactive: endpoint: mean survival time, dose: 4.0 mg/kg/injection, schedule: Q01DX009 (ip), vehicle: saline 109 % of control | endpoint: mean survival time, dose: 6.0 mg/kg/injection, schedule: Q01DX009 (ip), vehicle: saline 122 % of control | endpoint: mean survival time, dose: 9.0 mg/kg/injection, schedule: Q01DX009 (ip), vehicle: saline 114 % of control

C[N+](C)(C)c1ncnc2nc[nH]c12
inactive: endpoint: mean survival time, dose: 12.5 mg/kg/injection, schedule: Q01DX009 (ip), vehicle: saline 98 % of control and 108 % of control | endpoint: mean survival time, dose: 25.0 mg/kg/injection, schedule: Q01DX009 (ip), vehicle: saline 106 % of control and 108 % of control | endpoint: mean survival time, dose: 50.0 mg/kg/injection, schedule: Q01DX009 (ip), vehicle: saline 97 % of control and 112 % of control | endpoint: mean survival time, dose: 100.0 mg/kg/injection, schedule: Q01DX009 (ip), vehicle: saline 120 % of control and 121 % of control

Nc1nc2c(c(=O)[nH]1)N(C=O)C(CNc1ccc(C(=O)N[C@@H](CCC(=O)O)C(=O)O)cc1)CN2 (stereo partly drawn)
inactive: endpoint: mean survival time, dose: 67.0 mg/kg/injection, schedule: Q01DX009 (sc), vehicle: other 105 % of control | endpoint: mean survival time, dose: 100.0 mg/kg/injection, schedule: Q01DX009 (sc), vehicle: other 101 % of control | endpoint: mean survival time, dose: 150.0 mg/kg/injection, schedule: Q01DX009 (sc), vehicle: other 101 % of control | endpoint: mean survival time, dose: 225.0 mg/kg/injection, schedule: Q01DX009 (sc), vehicle: other 108 % of control | endpoint: mean survival time, dose: 338.0 mg/kg/injection, schedule: Q01DX009 (sc), vehicle: other 103 % of control

CC1=CC(C(=O)O)P(C)(=O)C1 (stereo not drawn)
inactive: endpoint: mean survival time, dose: 25.0 mg/kg/injection, schedule: Q01DX009 (ip), vehicle: saline with Tween-80 101 % of control | endpoint: mean survival time, dose: 25.0 mg/kg/injection, schedule: Q04DX002 (ip), vehicle: saline with Tween-80 100 % of control | endpoint: mean survival time, dose: 50.0 mg/kg/injection, schedule: Q01DX009 (ip), vehicle: saline with Tween-80 101 % of control | endpoint: mean survival time, dose: 50.0 mg/kg/injection, schedule: Q04DX002 (ip), vehicle: saline with Tween-80 91 % of control | [2] 104 % of control | endpoint: mean survival time, dose: 100.0 mg/kg/injection, schedule: Q04DX002 (ip), vehicle: saline with Tween-80 95 % of control

CC(C)(C)C(=O)CC(=O)C(C)(C)C.CC(C)(C)C(=O)CC(=O)C(C)(C)C.CC(C)(C)C(=O)CC(=O)C(C)(C)C.[Fe]
inactive: [2] 98 % of control | [1] 100 % of control | endpoint: mean survival time, dose: 200.0 mg/kg/injection, schedule: Q01DX009 (ip), vehicle: saline with Tween-80 97 % of control | endpoint: mean survival time, dose: 200.0 mg/kg/injection, schedule: Q04DX003 (ip), vehicle: saline with Tween-80 96 % of control | endpoint: mean survival time, dose: 400.0 mg/kg/injection, schedule: Q01DX009 (ip), vehicle: saline with Tween-80 95 % of control | endpoint: mean survival time, dose: 400.0 mg/kg/injection, schedule: Q04DX003 (ip), vehicle: saline with Tween-80 91 % of control

COCCNC1=C(C)C(=O)C2=C(C1=O)[C@H](COC(N)=O)[C@]1(OC)[C@@H]3N[C@@H]3CN21
inactive: endpoint: mean survival time, dose: 3.0 mg/kg/injection, schedule: Q01DX001 (ip), vehicle: distilled water + Tween-80 114 % of control | endpoint: mean survival time, dose: 24.0 mg/kg/injection, schedule: Q01DX001 (ip), vehicle: distilled water + Tween-80 123 % of control

— PubChem BioAssay AID256 (DTP/NCI, 2004)
